Reference: patent US20260193221A1, “SOLID FORMS COMPRISING (5R,6S)-10,11-DIFLUORO-12-((2-FLUORO-4-IODOPHENYL)AMINO)-5,6-DIHYDROXY-4,5,6,7-TETRAHYDRO-1H-SPIRO[BENZO[B][1,5,4]OXATHIAZECINE-3,1'-CYCLOPROPANE] 2,2-DIOXIDE, AND COMPOSITIONS COMPRISING AND METHODS OF USING THE SAME” (PASITHEA THERAPEUTICS CORP., priority 2024, published 2026)
Converted amounts (≈) assume the structure as drawn. “Also recorded” adds a separate entry of the source. Read-outs that look alike come from different tables or passages of the source. Each block holds one compound with its values, some of them ahead of it.

Legend:
Bulk stability = assay type: physicochemical; settings: 25° C./92.5% RH open, 40° C./75% RH open, 60° C. closed container; 1 week
Procedure: Form A was placed at 25° C./92.5% RH in an open container, at 40° C./75% RH in an open container, and at 60° C. in a closed container for 1 week. Samples after the stress were characterized by XRPD and HPLC and inspected for color change.

Hygroscopicity by DVS = assay type: physicochemical
Procedure: Water sorption and desorption behavior Form A was investigated by DVS at 25° C. with a cycle of 40-0-95-0-40% RH. XRPD was measured after the DVS test to determine form change. […] The DVS test measured 0.4% water uptake from 40% to 80% RH, see FIG. 4.

[1] = Solubility, Experiment 1 (target concentration 2 mg/mL); assay type: physicochemical; settings: for XRPD of residual solid / Solubility: 37° C.
Procedure: (§1) Experiment 1: 5 mg of Form A and 5 mg of amorphous form were weighed into an 8 mL glass vial, respectively. 2.5 mL of solubility medium was added. Obtained suspensions/solutions were stirred at 37° C. at 400 rpm and sampled at 2 hours and at 24 hours. Obtained suspensions/solutions were filtered through a 0.45 μm PVDF membrane filter by centrifugation at 14,000 rpm and at 37° C. Filtrate were analyzed by HPLC and pH meter for solubility and pH value, respectively. Residual solids (wet cakes) from the 24 hours samples were also characterized by XRPD to determine physical form.

[2] = Mechanic properties (compression, dry grinding, wet granulation simulation); assay type: physicochemical
Procedure: Compression simulation experiments: about 20 mg of Form A was compressed for 5 minutes under 2 MPa, 5 MPa and 10 MPa with a hydraulic press. Potential form change and degree of crystallinity were evaluated by XRPD.
Dry grinding simulation experiments: about 20 mg of Form A was ground manually with a mortar and a pestle for 5 min. Potential form change and degree of crystallinity were evaluated by XRPD.
Wet granulation simulation experiments: water or ethanol was added drop-wisely to about 20 mg of Form A until the sample was wetted sufficiently. Wet sample was ground gently with in a mortar and a pestle for 5 min. Post granulation sample was dried under ambient condition for 10 min. Potential form change and degree of crystallinity were evaluated by XRPD.

[3] = Solubility, Experiment 2 (target concentration 5 mg/mL); assay type: physicochemical; settings: for Solubility: 37° C.
Procedure: as §1, with “2:” for “1:”, “1” for “2.5”, “respectively.” for “respectively. Residual solids (wet cakes) from the 24 hours samples were also characterized by XRPD to determine physical form.”

[4] = Phase 1 clinical trial, safety and tolerability; assay type: in vivo, human
Description: (§2) A Phase 1 Open-Label Study to Assess the Safety, Tolerability, Pharmacokinetics, and Pharmacodynamics of Compound 1 in Patients with MAPK Pathway-Driven Advanced Solid Tumors with a Documented RAS, NF1, or RAF Mutation or Patients Who have Failed BRAF/MEK Inhibition
(§3) The Phase 1 clinical trial is a multi-center, open-label, dose escalation 3+3 study design to evaluate the safety, tolerability, pharmacokinetic (PK), pharmacodynamic (PD), and preliminary efficacy of Compound 1 in patients with MAPK pathway driven advanced solid tumors with a documented RAS, NF or RAF mutation or patients who have failed BRAF/MEK inhibition.
(§4) Patients with histologically or cytologically diagnosed mitogen-activated protein kinase (MAPK) pathway driven advanced solid tumors with all of the following characteristics qualified for enrollment: • i. tumor cannot be surgically resected • ii. patient has failed or is ineligible for standard of care therapy • iii. patient has no available treatment options with known clinical benefit • iv. documented evidence of rat sarcoma virus (RAS), neurofibromatosis type I (NF1), and/or rapidly accelerated fibrosarcoma (RAF) mutations. Patients with RAF mutations must have previously failed v-Raf murine sarcoma viral oncogene homolog B (BRAF)/MEK inhibition.
(§5) Patients in the study were administered Compound 1 by mouth as a single dose, followed by one week observation, then once a day during the study, in 28-day cycles. Participants will continue on daily Compound 1 for up to 2 years, or until: • i. they decide to withdraw from the study, or • ii. they experience unacceptable side effects, or • iii. their disease progresses, or another illness interferes with taking the study drug, or • iv. the sponsors stops the study.
(§6) In this study, Compound 1 was presented in 1 mg, 4 mg, and 10 mg strength capsules, intended for oral administration once daily. Sequential dose escalation is: 2 mg, 4 mg, 8 mg, 15 mg, 22 mg, 30 mg, 37 mg, and 45 mg.

[5] = Phase 1 clinical trial, pharmacokinetics; assay type: in vivo, human; settings: for AUC0-24 / Cmin / half-life / Cmax: patients; for AUC0-24 / Cmin / Cmax: geometric mean (geometric CV %); for half-life / Cmax: human, plasma, po
Description: as §2, §3, §4, §5, §6

[6] = Acetate buffer (50 mM), pH 4.5, 24 h
[7] = Acetate buffer (50 mM), pH 4.5, 24 h, target concentration 2 mg/mL
[8] = FaSSGF, pH 1.6, 24 h, target concentration 2 mg/mL
[9] = FaSSIF-v1, pH 6.5, 2 h, target concentration 2 mg/mL
[10] = FaSSIF-v1, pH 6.5, 24 h, target concentration 2 mg/mL
[11] = HCl solution, pH 1.2, 24 h, target concentration 2 mg/mL
[12] = Phosphate buffer (50 mM), pH 6.8, 24 h
[13] = Phosphate buffer (50 mM), pH 6.8, 24 h, target concentration 2 mg/mL
[14] = 2 mg, Day 22 (steady state), oral once daily
[15] = 4 mg, Day 22 (steady state), oral once daily

Color change after stress (Bulk stability): no change of color was observed
Physical form after stress (XRPD) (Bulk stability): Form A was confirmed
Water uptake (DVS) (Hygroscopicity by DVS; 25° C., from 40% to 80% RH): 0.4%
Hygroscopicity (Hygroscopicity by DVS; DVS at 25° C., cycle 40-0-95-0-40% RH): slightly hygroscopic
XRPD after the DVS test (form change) (Hygroscopicity by DVS; after DVS cycle 40-0-95-0-40% RH): no form change
XRPD of residual solid [1, 6]: Form A
Solubility [1, 7]: 5.1 µg/mL (≈ 8.94 µM)
solubility at 2 h ([1]; FaSSGF, pH 1.6, 37 °C, pH 1.6, fassgf or other biorelevant, thermodynamic from solid, pH 1.6, 2 h, target concentration 2 mg/mL): 12 µg/mL (≈ 21 µM)
XRPD of residual solid ([1]; FaSSGF, pH 1.6, 24 h): Form A
Solubility [1, 8]: 6.3 µg/mL (≈ 11 µM)
Solubility [1, 9]: 270 µg/mL (≈ 473 µM)
XRPD of residual solid ([1]; FaSSIF-v1, pH 6.5, 24 h): Form A
Solubility [1, 10]: 330 µg/mL (≈ 579 µM)
solubility at 2 h ([1]; FeSSIF-v1, pH 5.0, 37 °C, pH 5, fessif, thermodynamic from solid, FeSSIF-v1, pH 5.0, 2 h, target concentration 2 mg/mL): 1800 µg/mL (≈ 3160 µM)
solubility at 24 h ([1]; FeSSIF-v1, pH 5.0, 37 °C, pH 5, fessif, thermodynamic from solid, FeSSIF-v1, pH 5.0, 24 h, target concentration 2 mg/mL): ≥ 2000 µg/mL
solubility at 2 h ([1]; HCl solution, pH 1.2, 37 °C, pH 1.2, simulated gastric fluid, thermodynamic from solid, pH 1.2, 2 h, target concentration 2 mg/mL): 12 µg/mL (≈ 21 µM)
XRPD of residual solid ([1]; HCl solution, pH 1.2, 24 h): Form A
Solubility [1, 11]: 3.7 µg/mL (≈ 6.49 µM)
XRPD of residual solid [1, 12]: Form A
Solubility [1, 13]: 5.1 µg/mL (≈ 8.94 µM)
XRPD of residual solid ([1]; Water, 24 h): Form A
solubility at 2 h ([1]; acetate buffer (50 mM), pH 4.5, 37 °C, pH 4.5, aqueous buffer, thermodynamic from solid, pH 4.5, 2 h, target concentration 2 mg/mL): 12 µg/mL (≈ 21 µM)
solubility at 2 h ([1]; phosphate buffer (50 mM), pH 6.8, 37 °C, pH 6.8, aqueous buffer, thermodynamic from solid, pH 6.8, 2 h, target concentration 2 mg/mL): 13 µg/mL (≈ 22.8 µM)
solubility at 2 h ([1]; water, 37 °C, thermodynamic from solid, 2 h, target concentration 2 mg/mL): 19 µg/mL (≈ 33.3 µM)
Crystallinity after compression (XRPD) ([2]; compressed 5 minutes under 2 MPa, 5 MPa and 10 MPa): No obvious decrease in crystallinity
Crystallinity after dry grinding (XRPD) ([2]; ground manually with mortar and pestle for 5 min): Only a slight decrease in crystallinity
Crystallinity after wet granulation (XRPD) ([2]; water or ethanol, ground 5 min, dried 10 min): Only a slight decrease in crystallinity
solubility at 24 h ([3]; FeSSIF-v1, pH 5.0, 37 °C, pH 5, fessif, thermodynamic from solid, 24 h): 3000 µg/mL (≈ 5260 µM)
Solubility ([3]; FeSSIF-v1, pH 5.0, 2 h): 2400 µg/mL (≈ 4210 µM)
SMILES: O=S1(=O)Nc2c(cc(F)c(F)c2Nc2ccc(I)cc2F)OC[C@H](O)[C@H](O)CC12CC2 [Form A, (5R,6S)-10,11-difluoro-12-((2-fluoro-4-iodophenyl)amino)-5,6-dihydroxy-4,5,6,7-tetrahydro-1H-spiro[benzo[b][1,5,4]oxathiazecine-3,1′-cyclopropane]2,2-dioxide]

Dose dependence of plasma exposure ([5]; 2 mg and 4 mg cohorts): linear PK was observed
AUC0-24 ([5]; 2 mg, Day 1, oral): 86.3 (89.2) ng*h/mIL
AUC0-24 [5, 14]: 354 (95.2) ng*h/mIL
Cmin [5, 14]: 10.2 (119.4) ng/mL
AUC0-24 ([5]; 4 mg, Day 1, oral): 100 (97.1) ng*h/mIL
AUC0-24 [5, 15]: 1,390 (12.8) ng*h/mIL
Cmin [5, 15]: 51.5 (20.8) ng/mL
time at which drug levels peaked ([5]; at steady-state, 2 mg and 4 mg dose groups): about 5 hours
half-life ([5]; 2 mg and 4 mg cohorts, oral, read-out: half-life (converted)): ~70 h
half-life ([5]; 2 mg and 4 mg cohorts, oral, read-out: mean elimination half-life (converted)): 67.9 h
Cmax ([5]; 2 mg, Day 1, oral): 4.91 ng/mL
Cmax [5, 14]: 16.2 ng/mL
Cmax ([5]; 4 mg, Day 1, oral): 6.36 ng/mL
Cmax [5, 15]: 61.3 ng/mL
Cmax/Cmin ratio ([5]; plasma concentration at steady state): 1.2
SMILES: O=S1(=O)Nc2c(cc(F)c(F)c2Nc2ccc(I)cc2F)OC[C@H](O)[C@H](O)CC12CC2 [Compound 1, (5R,6S)-10,11-difluoro-12-((2-fluoro-4-iodophenyl)amino)-5,6-dihydroxy-4,5,6,7-tetrahydro-1H-spiro[benzo[b][1,5,4]oxathiazecine-3,1′-cyclopropane]2,2-dioxide]
Rash or skin, gastrointestinal (GI), ocular toxicity ([4]; 2 and 4 mg dose levels): without showing adverse side effects such as rash or GI toxicity; also recorded: no rash or skin toxicity, gastrointestinal (GI) toxicity, or ocular toxicity have been observed
Drug-related serious adverse events (SAE) ([4]; any dose arm): no drug-related serious adverse events
Drug-related dose interruptions, reductions or discontinuations ([4]; first 2 dosing cohorts (n=6)): no drug-related dose interruptions, reductions or discontinuations
Tolerability ([4]; first 2 dosing cohorts (n=6), 2 mg and 4 mg): well-tolerated

Solubility ([1]; Acetate buffer (50 mM), pH 4.5, 2 h, target concentration 2 mg/mL): 17 µg/mL (≈ 29.8 µM)
XRPD of residual solid [1, 6]: Amorphous
Solubility [1, 7]: 17 µg/mL (≈ 29.8 µM)
Solubility ([1]; FaSSGF, pH 1.6, 2 h, target concentration 2 mg/mL): 16 µg/mL (≈ 28.1 µM)
XRPD of residual solid ([1]; FaSSGF, pH 1.6, 24 h): Amorphous
Solubility [1, 8]: 14 µg/mL (≈ 24.5 µM)
Solubility [1, 9]: 1100 µg/mL (≈ 1930 µM)
XRPD of residual solid ([1]; FaSSIF-v1, pH 6.5, 24 h): Amorphous
Solubility [1, 10]: 1200 µg/mL (≈ 2100 µM)
Solubility ([1]; FeSSIF-v1, pH 5.0, 2 h, target concentration 2 mg/mL): >2000 µg/mL
Solubility ([1]; FeSSIF-v1, pH 5.0, 24 h, target concentration 2 mg/mL): >2000 µg/mL
Solubility ([1]; HCl solution, pH 1.2, 2 h, target concentration 2 mg/mL): 14 µg/mL (≈ 24.5 µM)
XRPD of residual solid ([1]; HCl solution, pH 1.2, 24 h): Form A
Solubility [1, 11]: 13 µg/mL (≈ 22.8 µM)
Solubility ([1]; Phosphate buffer (50 mM), pH 6.8, 2 h, target concentration 2 mg/mL): 16 µg/mL (≈ 28.1 µM)
XRPD of residual solid [1, 12]: Amorphous
Solubility [1, 13]: 16 µg/mL (≈ 28.1 µM)
Solubility ([1]; Water, 2 h, target concentration 2 mg/mL): 38 µg/mL (≈ 66.6 µM)
XRPD of residual solid ([1]; Water, 24 h): Amorphous
Solubility ([1]; Water, 24 h, target concentration 2 mg/mL): 34 µg/mL (≈ 59.6 µM)
Solubility ([3]; FeSSIF-v1, pH 5.0, 2 h): >5000 µg/mL
Solubility ([3]; FeSSIF-v1, pH 5.0, 24 h): >5000 µg/mL
SMILES: O=S1(=O)Nc2c(cc(F)c(F)c2Nc2ccc(I)cc2F)OC[C@H](O)[C@H](O)CC12CC2 [Amorphous form, (5R,6S)-10,11-difluoro-12-((2-fluoro-4-iodophenyl)amino)-5,6-dihydroxy-4,5,6,7-tetrahydro-1H-spiro[benzo[b][1,5,4]oxathiazecine-3,1′-cyclopropane]2,2-dioxide]
